The source of these data is PubChem BioAssay AID264 (DTP/NCI, 2004).

This test concerns nude mice, LX-1 lung xenograft intrarenal, tumor weight T/C. Kind of test: NCI In Vivo Anticancer Drug Screen. Data for tumor model Human Lung LX-1 Xenograft (intrarenal inoculation) in NU/NU Swiss (nude) mice. To be noted: endpoint: mean tumor weight change, higher = larger tumour. A digest of the protocol:
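Readout: T/C, i.e. treated-group tumor measurement over vehicle-control measurement. Mice bearing transplantable tumors were dosed with compound or vehicle.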
(Xenograft models place foreign cells or tissue in a host animal.)

[1] abbreviates: dose: 300.0 mg/kg/injection, schedule: Q04DX003 (sc), vehicle: saline.
[2] abbreviates: dose: 600.0 mg/kg/injection, schedule: Q04DX003 (sc), vehicle: saline.
The mark [3] stands for this setting: dose: 1200.0 mg/kg/injection, schedule: Q04DX003 (sc), vehicle: saline.
Where [4] appears, read: dose: 2400.0 mg/kg/injection, schedule: Q04DX003 (sc), vehicle: saline.
The mark [5] stands for this setting: dose: 50.0 mg/kg/injection, schedule: Q01DX010 (sc), vehicle: Klucel (hydroxypropylcellulose) (HPC).
[6] abbreviates: dose: 200.0 mg/kg/injection, schedule: Q01DX010 (sc), vehicle: Klucel (hydroxypropylcellulose) (HPC).
Setting [7] is: dose: 100.0 mg/kg/injection, schedule: Q04DX003 (sc), vehicle: saline with Tween-80.
Setting [8] is: dose: 200.0 mg/kg/injection, schedule: Q04DX003 (sc), vehicle: saline with Tween-80.
The mark [9] stands for this setting: dose: 400.0 mg/kg/injection, schedule: Q04DX003 (sc), vehicle: saline with Tween-80.
Setting [10] is: dose: 800.0 mg/kg/injection, schedule: Q04DX003 (sc), vehicle: saline with Tween-80.
[11] abbreviates: dose: 300.0 mg/kg/injection, schedule: Q04DX003 (sc), vehicle: Klucel (hydroxypropylcellulose) (HPC).
Setting [12] is: dose: 600.0 mg/kg/injection, schedule: Q04DX003 (sc), vehicle: Klucel (hydroxypropylcellulose) (HPC).
Where [13] appears, read: dose: 1200.0 mg/kg/injection, schedule: Q04DX003 (sc), vehicle: Klucel (hydroxypropylcellulose) (HPC).
[14] abbreviates: dose: 1600.0 mg/kg/injection, schedule: Q04DX003 (sc), vehicle: saline with Tween-80.
The mark [15] stands for this setting: dose: 300.0 mg/kg/injection, schedule: Q04DX003 (sc), vehicle: saline with Tween-80.
Setting [16] is: dose: 300.0 mg/kg/injection, schedule: Q04DX003 (sc), vehicle: suspension in saline.
Where [17] appears, read: dose: 600.0 mg/kg/injection, schedule: Q04DX003 (sc), vehicle: suspension in saline.
Setting [18] is: dose: 1200.0 mg/kg/injection, schedule: Q04DX003 (sc), vehicle: suspension in saline.

Several values for one entry are separate records, joined by “and”; a condition that tells them apart may be missing. Equal values may be shown once. Inconclusive results are not listed.

With `COc1cc2c(ccc3c4cc(OC)c(OC)cc4c[n+](C)c23)cc1O`, the T/C was 107 % of control under setting [1], 79 % of control under setting [2], 46 % of control under setting [3] and 65 % of control under setting [4].

Turning to `OCC1OC(n2cnc3c(=S)nc[nH]c32)C(O)C1O` (stereo unspecified), the T/C runs as follows: (dose: 100.0 mg/kg/injection, schedule: Q01DX010 (sc), vehicle: saline) 86 % of control; under setting [1], 75 % of control; under setting [2], 99 % of control; under setting [3], 124 % of control; under setting [4], 65 % of control.

Regarding `CCCC(=O)OCc1cc(=O)n(C)c2c3c4c(cc12)c(C)cc(=O)n4CO3`, the T/C was 89 % of control (dose: 25.0 mg/kg/injection, schedule: Q01DX010 (sc), vehicle: Klucel (hydroxypropylcellulose) (HPC)); 70 % of control under setting [5]; 48 % of control (dose: 100.0 mg/kg/injection, schedule: Q01DX010 (sc), vehicle: Klucel (hydroxypropylcellulose) (HPC)); 63 % of control under setting [6].

With `CC1(C)COCN1COC1CCCCC1`, the T/C under setting [7] was 76 % of control, the T/C under setting [8] is 119 % of control, the T/C under setting [9] was 68 % of control and the T/C under setting [10] was 110 % of control.

Take `CCOC(=O)CNC(=O)Sc1ccc(C(C)(C)C)cc1`: the T/C is 89 % of control (dose: 150.0 mg/kg/injection, schedule: Q04DX003 (sc), vehicle: Klucel (hydroxypropylcellulose) (HPC)); 99 % of control under setting [11]; 76 % of control under setting [12]; 95 % of control under setting [13].

Turning to `C[n+]1ccc(Nc2ccc(NC(=O)c3ccc(Nc4cc[n+](C)c5ccc(N)cc45)cc3)cc2)cc1`, the T/C runs as follows: (dose: 12.5 mg/kg/injection, schedule: Q04DX003 (sc), vehicle: distilled water + Tween-80) 80 % of control; (dose: 25.0 mg/kg/injection, schedule: Q04DX003 (sc), vehicle: distilled water + Tween-80) 86 % of control; (dose: 50.0 mg/kg/injection, schedule: Q04DX003 (sc), vehicle: distilled water + Tween-80) 25 % of control; (dose: 100.0 mg/kg/injection, schedule: Q04DX003 (sc), vehicle: distilled water + Tween-80) 53 % of control.

In the case of `OCC1OC(n2cnc3c(NO)ncnc32)C(O)C1O` (stereo unspecified), the T/C was 105 % of control under setting [11]; 102 % of control under setting [12]; 86 % of control under setting [13]; 68 % of control (dose: 2400.0 mg/kg/injection, schedule: Q04DX003 (sc), vehicle: Klucel (hydroxypropylcellulose) (HPC)).

With `O/N=C/c1ccccc1O.O/N=C/c1ccccc1O.[Cu]`, the T/C is, setting by setting: under setting [7], 72 % of control; under setting [8], 67 % of control and 72 % of control; under setting [9], 93 % of control.

Turning to `O=C1NC(=O)C2C3C=CC(C12)C1C2C(=O)NC(=O)C2C31` (stereo unspecified), the T/C reads like this: under setting [7], 123 % of control; under setting [9], 84 % of control; under setting [10], 75 % of control; under setting [14], 105 % of control.

On to `C[C@]12CCC(=O)C=C1CC[C@@H]1[C@@H]2[C@@H](O)C[C@@]2(C)[C@H]1CC[C@]2(O)C(=O)CO`, for which the T/C under setting [11] was 40 % of control.

In the case of `O=c1[nH]c(=O)n([C@H]2CCCO2)cc1F`, the T/C runs as follows: under setting [5], 37 % of control; under setting [6], 93 % of control; (dose: 400.0 mg/kg/injection, schedule: Q01DX010 (sc), vehicle: Klucel (hydroxypropylcellulose) (HPC)) 103 % of control.

Turning to `COC1=C(OC)C(=O)C(Sc2ccc3ccccc3c2)=CC1=O`, the T/C reads like this: (dose: 75.0 mg/kg/injection, schedule: Q04DX003 (sc), vehicle: saline with Tween-80) 85 % of control; (dose: 150.0 mg/kg/injection, schedule: Q04DX003 (sc), vehicle: saline with Tween-80) 93 % of control; under setting [8], 115 % of control; under setting [15], 80 % of control; under setting [9], 104 % of control; under setting [10], 92 % of control. Also, under setting [14], the T/C was 79 % of control.

`COC1C(O)CC(OC2CC(OC3CC(O[C@@H]4C(=O)c5c(cc6cc(OC7CC(OC8CC(O)C(O)C(C)O8)C(O)C(C)O7)c(C)c(O)c6c5O)C[C@H]4[C@H](OC)C(=O)[C@@H](O)[C@@H](C)O)OC(C)C3O)OC(C)C2O)OC1C` (stereo partly specified): the T/C was 62 % of control (dose: 0.18 mg/kg/injection, schedule: Q01DX010 (sc), vehicle: saline) and 32 % of control (dose: 0.37 mg/kg/injection, schedule: Q01DX010 (sc), vehicle: saline).

For the compound `NC(=S)N/N=C/c1ccc(OC(=O)COc2ccc(Cl)cc2)cn1`, the T/C by setting is: under setting [15], 54 % of control; (dose: 600.0 mg/kg/injection, schedule: Q04DX003 (sc), vehicle: saline with Tween-80) 44 % of control; (dose: 1200.0 mg/kg/injection, schedule: Q04DX003 (sc), vehicle: saline with Tween-80) 23 % of control.

Turning to `CC1(C)COCN1COCCOCN1COCC1(C)C`, the T/C is 169 % of control (dose: 200.0 mg/kg/injection, schedule: Q04DX003 (sc), vehicle: saline) and 191 % of control (dose: 400.0 mg/kg/injection, schedule: Q04DX003 (sc), vehicle: saline).

As to `CO[C@@H]1[C@H](O)CC[C@]2(CO2)[C@H]1[C@@]1(C)O[C@@H]1CC=C(C)C`, the T/C (dose: 150.0 mg/kg/injection, schedule: Q04DX003 (sc), vehicle: suspension in saline) is 79 % of control; the T/C under setting [16] is 90 % of control; the T/C under setting [17] was 63 % of control; the T/C under setting [18] was 63 % of control.

For the compound `CN(C)[C@@H]1C(=O)C(C(N)=O)=C(O)[C@@]2(O)C(=O)C3=C(O)c4c(O)ccc(Cl)c4[C@@](C)(O)[C@H]3C[C@@H]12`, the T/C was 81 % of control under setting [1], 200 % of control under setting [2] and 220 % of control under setting [3].

As for `COc1ccc(/C=C/C(=O)c2cc(C(=O)O)c(OC)cc2OC)cc1OC`, the T/C is, setting by setting: under setting [16], 100 % of control; under setting [17], 56 % of control; under setting [18], 73 % of control; (dose: 2400.0 mg/kg/injection, schedule: Q04DX003 (sc), vehicle: suspension in saline) 66 % of control.

Regarding `CC1OC1C(=O)C1(O)C(C)C(O)C23OC2(C(O)c2c(O)cccc2C3=O)C1O` (stereo unspecified), the T/C (dose: 6.0 mg/kg/injection, schedule: Q04DX003 (sc), vehicle: Klucel (hydroxypropylcellulose) (HPC)) was 83 % of control; the T/C (dose: 12.0 mg/kg/injection, schedule: Q04DX003 (sc), vehicle: Klucel (hydroxypropylcellulose) (HPC)) was 98 % of control; the T/C (dose: 24.0 mg/kg/injection, schedule: Q04DX003 (sc), vehicle: Klucel (hydroxypropylcellulose) (HPC)) was 110 % of control; the T/C (dose: 48.0 mg/kg/injection, schedule: Q04DX003 (sc), vehicle: Klucel (hydroxypropylcellulose) (HPC)) was 41 % of control.

In the case of `CC1=C(C)C(=O)O[C@@H]([C@](C)(O)[C@]2(O)CC[C@@]3(O)[C@@H]4C[C@H]5O[C@]56[C@@H](O)C=CC(=O)[C@]6(C)[C@H]4CC[C@]23C)C1`, the T/C runs as follows: (dose: 4.0 mg/kg/injection, schedule: Q01DX010 (sc), vehicle: saline) 61 % of control; (dose: 64.0 mg/kg/injection, schedule: Q01DX010 (sc), vehicle: saline) 121 % of control.

Regarding `O=C1c2cccc3cc([N+](=O)[O-])cc(c23)C(=O)N1CCN1CCCC1`, the T/C by setting is: (dose: 9.0 mg/kg/injection, schedule: Q04DX003 (sc), vehicle: saline with Tween-80) 104 % of control; (dose: 18.0 mg/kg/injection, schedule: Q04DX003 (sc), vehicle: saline with Tween-80) 75 % of control; (dose: 36.0 mg/kg/injection, schedule: Q04DX003 (sc), vehicle: saline with Tween-80) 74 % of control; (dose: 72.0 mg/kg/injection, schedule: Q04DX003 (sc), vehicle: saline with Tween-80) 76 % of control.

As to `C[CH2][Ge]1([CH2]C)[CH2]CC2(CCN(CCCN(C)C)C2)C[CH2]1`, the T/C (dose: 150.0 mg/kg/injection, schedule: Q04DX003 (sc), vehicle: saline) was 89 % of control.
